From patent publication US12016862B2, “Methods and compositions comprising a KRasG12C inhibitor and a VEGF inhibitor for treating solid tumors” (Genentech, Inc., priority 2020, dated 2024)
“And” between values parts separate entries of the source, which are not always exact repeats. Equal values may be shown once. Read-outs that look alike come from different tables or passages of the source.

Tests used:
[1] = tested on: KRAS^G12C-positive cancer cell lines; assay: Growth inhibition of KRAS^G12C-positive versus KRAS^G12C-negative cancer cell lines; type: cell-based
[2] = tested on: NCI-H2122 (KRAS^G12C) NSCLC xenograft; assay: Anti-tumor efficacy in NCI-H2122 NSCLC xenograft tumor model; type: in vivo, nude mice
Protocol: Anti-VEGFA 620.4.1.1 (Mu anti-VEGFA 620.4.1.1; hereafter referred to as anti-VEGF) was a solution in Histidine Buffer ([…], 0.02% Tween 20™, pH5.5). […] The anti-gD isotype control (Hu anti-gD 5B6; hereafter referred to as Isotype Control) was a solution in saline. […] The mice were housed in standard rodent micro-isolator cages and were acclimated to study conditions at least 3 days before tumor cell implantation. Only animals that appeared to be healthy and that were free of obvious abnormalities were used for the study. Human non-small lung carcinoma NCI-H2122 cells were obtained from the American Type Culture Collection (Rockville, MD) and harbor a G12C oncogenic mutation in K-RAS. […] Mice were distributed into four groups based on tumor volumes with n=10 mice per group. […] The isotope control and anti-VEGF antibodies were administered intravenously (IV) at 10 mg/kg for the first dose, and then dosed intraperitoneally (IP) at 5 mg/kg for subsequent doses on a twice weekly (BIW) schedule. Tumor sizes and mouse body weights were recorded twice weekly over the course of the study. […] Fred V. Fowler Co.; Newton, MA) and analyzed using Excel, version 14.2.5 (Microsoft Corporation; Redmond WA). […] A generalized additive mixed model (GAMM) was employed to analyze transformed tumor volumes over time as this approach addresses both repeated measurements from the same study subjects and modest dropouts before study end (Lin et al. Wiley Online Library; 1999; 61:381-400 and Liang Biometrical Journal. Wiley Online Library; 2005; 47:358-68). […] Estimates of efficacy were obtained by calculating the percent difference between the daily average baseline-corrected AUC of the relevant group fits on the original (i.e., untransformed) scale over a common time period.

[3] = Risks associated with administration of study drugs; type: in vivo; details: Compound 1
From the text: Risks Associated with Compound 1.
Risks Associated with Bevacizumab.

[4] = bevacizumab; cited from earlier work
[5] = number of mice of n=10, same dosing, 21 days

| Compound | selectivity in growth inhibition for KRAS^G12C-positive over KRAS^G12C-negative cancer cell lines [1] | % TGI (estimated) ([2]; NCI-H2122 xenografts in nude mice, n=10, Compound 1 50 mg/kg PO QD, anti-VEGF 10 mg/kg IV first dose then 5 mg/kg IP BIW, 21 days, based on AUC, relative to vehicle controls) [%] | mice showing reductions in initial tumor size ([2]; initial tumor response, n=10 per group) [%] | TI (tumor incidence) ([2]; n=10 per group, same dosing, 21 days) | CR (complete responses, 100% decrease in tumor volume) [2, 5] | PR (partial responses, >50% decrease from the initial tumor volume) [2, 5] | anti-tumor effect in words ([2]; single agent treatment) | mice showing increases in tumor volume ([2]; within the first week of treatment, of 10 mice) | risks associated with administration [3] | risks associated with administration [4] |
| --- | --- | --- | --- | --- | --- | --- | --- | --- | --- | --- |
| C=CC(=O)N1CCN(c2nc(OC[C@@H]3CCCN3C)nc3c(F)c(-c4nc(N)cc(C)c4C(F)(F)F)c(Cl)cc23)[C@@H](C)C1 (atropisomer, axis not shown) [Compound 1] | over 20,000 fold | 98 | 50 | 10/10 | 0 | 2/10 and 2 | tumor stasis | 5/10 | diarrhea, nausea, vomiting, oral mucosal irritation, minimal to mild transaminase elevation, and phototoxicity |  |
| Bevacizumab: recombinant humanized anti-VEGF monoclonal antibody generated according to Presta et al. |  |  |  |  |  |  |  |  |  | gastrointestinal perforations, surgery and wound healing complications, hemorrhage |
